From paper PMC11637483, “Dissecting caspase-2-mediated cell death: from intrinsic PIDDosome activation to chemical modulation” (Protein & Cell, 2024)

How the values were obtained:
[1] = tested on: Jurkat cells; test: Cell death and caspase-2 processing in Jurkat cells (endogenous caspase-2); assay type: cell-based, human; settings: 8 h
Source text: We further examined whether HUHS015-derived compounds could activate endogenous caspase-2 in human cells. […] Complementing the CASP2^−/− Jurkat cells with exogenous caspase-2 restored HUHS015-36-induced apoptosis, in which caspase-2 was expectedly processed (Fig. 5A and 5B). We also profiled caspase-2 expression in a panel of 10 mouse tumor cell lines and observed highly variable expression levels (Fig. 5C). […] In B16-F10 (melanoma), LLC1 (Lewis lung carcinoma), MB49 (bladder carcinoma), KPC (pancreatic ductal adenocarcinoma), and 4T1 (mammary carcinoma) cells, caspase-2 was expressed at much lower levels (Fig. 5C). In contrast, EMT6 (mammary carcinoma), EL4 (T lymphoblast), and Hepa1-6 (hepatoma) feature robust caspase-2 expression, much higher than in Jurkat cells (Fig. 5C).
Figure 5. HUHS015-36 activates endogenous caspase-2 to induce apoptosis in Jurkat cells but not mouse cells. […] Lysates of 10 mouse cancer cell lines were analyzed by immunoblotting using indicated antibodies. […] ATP cell viability (A and D) is expressed as mean ± s.d. from three technical replicates. […]
Cell viability was measured by the ATP assay using the CellTiter-Glo® Luminescent Cell Viability Assay kit (Promega).
To stimulate caspase-2 activation, PIDD1-CC controlled by a Tet-On inducible system was introduced into indicated cells. […] Cell lysates were analyzed by standard immunoblotting.

[2] = tested on: HeLa-CASP2−/−CASP3−/−GSDMD−/− (TKO) cells; test: Cell death in control HeLa triple knockout cells without active caspase-2; assay type: cell-based, human
Source text: Specific chemical compounds are powerful tools for dissecting target-related signaling mechanisms in biological contexts ([Beck et al., 2022]; [Zhang et al., 2012]). Prompted by this notion and possibly to identify a compound that could activate the PIDDosome, we designed a cell death-based high-throughput chemical screen in HeLa cells, in which a triple knockout of CASP2, CASP3, and GSDMD were constructed. CASP3 and GSDMD deficiency served as the background to minimize compound-induced nonspecific cytotoxicity and undesired pyroptosis. Using the triple knockout cells as the control, additional expression of exogenous caspase-2 allows the identification of compounds that can specifically activate the caspase-2-BID pathway and trigger apoptosis through caspase-7. […]
Figure 3. […] The ratios of the cell viability between the two groups are calculated with 3 as a cutoff for positive compound hit selection. […] Processing of caspase-2, -3, and -7 was analyzed by immunoblotting. […] ATP-based cell viability in panels (B and D) is expressed as mean ± s.d. from three technical replicates. […]
Drug-related Screening Library (25 × 384-well plate, more than 7,000 compounds) was used for the chemical screen in the TKO HeLa cells rescued with exogenous caspase-2 expression. […] After treatment for 12 h, the cell viability was measured by the ATP assay. […]

| Structure (SMILES) | caspase-2 processing and cell death ([1]; CASP2 knockout Jurkat cells) | caspase-2 processing and cell death ([1]; WT Jurkat cells) | cell death ([2]; TKO cells expressing protease-deficient caspase-2 C320A) | cell death selectivity, caspase-2-expressing vs control TKO cells ([2]; chemical screen, 12 h) |
| --- | --- | --- | --- | --- |
| Cc1cccc2nc(-n3nc4c(c3O)CCCC4)[nH]c12 [HUHS015-36] | completely diminished | induced evident caspase-2 processing and cell death | – | – |
| Cc1ccc2nc(-n3nc(C)c(Cc4ccccc4)c3O)[nH]c2c1 [HUHS015] | – | – | no cell death | robust cell death selectively in caspase-2-expressing but not the control triple knockout cells |
